Test results reported in US7727949B2, “Cleaning agent for thermostatic chambers” (Wako Pure Chemical Industries, Ltd., priority 2005, dated 2010).

Assays:
Assay type in all cases: cell-based
[1] = system: Staphylococcus aureus (NBRC12732); assay: Study of antimicrobial activity in the presence of proteins (MIC)
Method: (§1) GOT (glutamic-oxaloacetic transaminase) solution: GOT Substrate-Enzyme solution and GOT-2α•KG solution which were components of L type Wako GOT•J2 kit (produced by Wako Pure Chemical Industries, Ltd.) were prepared with distilled water so as to become a 0.2 w/w % aqueous solution.
(§2) GPT (glutamic-pyruvic transaminase) solution: GOT Substrate-Enzyme solution and GOT•2α-KG solution which were components of L type Wako GPT•J2 kit (produced by Wako Pure Chemical Industries, Ltd.) were prepared with distilled water so as to become a 0.2 w/w % aqueous solution.
(§3) Serum: Control Serum II Wako (produced by Wako Pure Chemical Industries, Ltd.) was prepared with distilled water so as to become a 0.2 w/w % aqueous solution with distilled water.
(§4) In a sterilized petri dish having a diameter of 90 mm, an aqueous solution which was obtained by diluting each of agents with distilled water was added such that a concentration of the agent become each predetermined concentrations when the solution is prepared to a total volume of 20 mL, and the agent aqueous solution and a reagent solution such that a final concentration of each of components (GOT, GPT, and serum) in the reagent become 100 μg/mL when the solution is prepared to a total volume of 20 mL. And then, sterilized water was added into the petri dish such that a total volume of sterilized water and the agent aqueous solution become 2 mL. Further, 18 mL of nutrient agar medium, which was sterilized with high pressure steam and preserved at 50° C.±2° C., was added into the petri dish, and it was solidified to obtain an agar plate medium. Furthermore, as a reference, agar plate medium obtained by using pure water instead of the agent solution was also prepared.
(§5) The individual test microorganisms, which was preliminarily cultured in bouillon medium in advance until 1×10^8 microorganisms/mL, was diluted with sterilized physiological saline for 100 times (to 1×10^6 microorganisms/mL). Next, the prepared solution of the test microorganisms was smeared with a platinum loop on the surface of the agar plate medium prepared in (2), and the medium was cultured at 35° C.±2° C. for 24 hours.
(§6) After the cultivation, confirming the presence or not of the growth of the microorganism on the surface of the medium was conducted, a minimum concentration of the agent, where growth of the microorganisms cannot be recognized, was determine as the minimum inhibitory concentration (MIC, μg/mL) of the agent.

[2] = system: Bacillus subtilis (NBRC13719); assay: as above
Method: as §1, §2, §3, §4, §5, §6

[3] = system: Escherichia coli (NBRC3972); assay: as above
Method: as §1, §2, §3, §4, §5, §6

[4] = system: Pseudonas aeruginosa (NBRC12689); assay: as above
Method: as §1, §2, §3, §4, §5, §6

[5] = system: Bacillus subtilis (NBRC13719); assay: Study of germicidal activity of agents in the presence of proteins; set-up: key: a case where growth of the microorganism on the surface of the medium was recognized is shown by +; a case where growth of the microorganism on the surface of the medium was not recognized is shown by −; details: agent 50 μg/mL
Method: (§7) Didecyldimethylammonium adipate (DDAA), N-bis(3-aminopropyl)dodecylamine (TAA) and benzalkonium chloride were respectively prepared such that a concentration thereof is 1 w/w %.
(§8) GOT solution: GOT Substrate-Enzyme solution and GOT•L2α-KG solution which were components of L type Wako GOT•J2 kit (produced by Wako Pure Chemical Industries, Ltd.) were prepared with distilled water so as to become a 0.1 w/w % aqueous solution.
(§9) GPT solution: GOT Substrate-Enzyme solution and GOT•L2α-KG solution which were components of L type Wako GPT•J2 kit (produced by Wako Pure Chemical Industries, Ltd.) were prepared with distilled water so as to become a 0.1 w/w % aqueous solution.
(§10) Serum: Control Serum II Wako (produced by Wako Pure Chemical Industries, Ltd.) was prepared with distilled water so as to become a 0.1 w/w % aqueous solution.
(§11) i) The individual test microorganism, which was preliminarily cultured in bouillon medium in advance until 1×10^8 microorganisms/mL, were diluted with sterilized physiological saline for 100 times (to 1×10^6 microorganisms/mL) to obtain a solution of test microorganisms. ii) Into a 20 mL test tube made of glass which was preliminarily sterilized by dry-heat sterilization, the agent aqueous solution, the reagent solution and the solution of test microorganisms as prepared in the above described i) were added such that a final concentration of the agent become 50 μg/mL, a final concentration of the reagent become 100 μg/mL, and the number of test microorganisms become 1×10^5 microorganisms/mL, respectively, when a total volume thereof is prepared to be 10 mL. And then, the tube was sufficiently stirred. iii) After a lapse of predetermined times (5 min, 10 min, and 15 min), the solution as obtained in the above described ii) was smeared with a platinum loop on the surface of the nutrient agar plate medium preliminarily having been prepared, and the medium was cultured at 35° C.±2° C. for 24 hours. iv) After the cultivation, confirming the presence or not of the growth of the microorganisms on the surface of the medium was conducted. (3) Result
(§12) In Table 3, a case where growth of the microorganism on the surface of the medium was recognized is shown by +, and a case where growth of the microorganism on the surface of the medium was not recognized is shown by −, respectively.

[6] = system: Staphylococcus aureus (NBRC12732); assay: as above; set-up: key to growth of the microorganism S.a: a case where growth of the microorganism on the surface of the medium was recognized is shown by +; a case where growth of the microorganism on the surface of the medium was not recognized is shown by −; details: agent 50 μg/mL
Method: as §7, §8, §9, §10, §11, §12

[7] = system: Pseudonas aeruginosa (NBRC12689); assay: as above; set-up: key to growth of the microorganism P.a: a case where growth of the microorganism on the surface of the medium was recognized is shown by +; a case where growth of the microorganism on the surface of the medium was not recognized is shown by −; details: agent 50 μg/mL
Method: as §7, §8, §9, §10, §11, §12

Didecyldimethylammonium adipate [DDAA]
Minimum Inhibitory Concentration S.a ([1]; GOT 100 μg/mL): <1 µg/mL | Minimum Inhibitory Concentration S.a ([1]; GPT 100 μg/mL): <1 µg/mL | Minimum Inhibitory Concentration S.a ([1]; Pure Water): <1 µg/mL | Minimum Inhibitory Concentration S.a ([1]; Serum 100 μg/mL): <1 µg/mL | Minimum Inhibitory Concentration B.s ([2]; GOT 100 μg/mL): <1 µg/mL | Minimum Inhibitory Concentration B.s ([2]; GPT 100 μg/mL): <1 µg/mL | Minimum Inhibitory Concentration B.s ([2]; Pure Water): <1 µg/mL | Minimum Inhibitory Concentration B.s ([2]; Serum 100 μg/mL): <1 µg/mL | Minimum Inhibitory Concentration E.c ([3]; GOT 100 μg/mL): 50 µg/mL | Minimum Inhibitory Concentration E.c ([3]; GPT 100 μg/mL): 50 µg/mL | Minimum Inhibitory Concentration E.c ([3]; Pure Water): 50 µg/mL | Minimum Inhibitory Concentration E.c ([3]; Serum 100 μg/mL): 50 µg/mL | Minimum Inhibitory Concentration P.a ([4]; GOT 100 μg/mL): 200 µg/mL | Minimum Inhibitory Concentration P.a ([4]; GPT 100 μg/mL): 200 µg/mL | Minimum Inhibitory Concentration P.a ([4]; Pure Water): 200 µg/mL | Minimum Inhibitory Concentration P.a ([4]; Serum 100 μg/mL): 200 µg/mL | growth of the microorganism B.s ([5]; GOT, 5 min): + | growth of the microorganism B.s ([5]; GOT, 10 min): + | growth of the microorganism B.s ([5]; GOT, 15 min): + | growth of the microorganism B.s ([5]; GPT, 5 min): + | growth of the microorganism B.s ([5]; GPT, 10 min): + | growth of the microorganism B.s ([5]; GPT, 15 min): + | growth of the microorganism B.s ([5]; Serum, 5 min): + | growth of the microorganism B.s ([5]; Serum, 10 min): + | growth of the microorganism B.s ([5]; Serum, 15 min): + | growth of the microorganism S.a ([6]; GOT, 5 min): − | growth of the microorganism S.a ([6]; GOT, 10 min): − | growth of the microorganism S.a ([6]; GOT, 15 min): − | growth of the microorganism S.a ([6]; GPT, 5 min): − | growth of the microorganism S.a ([6]; GPT, 10 min): − | growth of the microorganism S.a ([6]; GPT, 15 min): − | growth of the microorganism S.a ([6]; Serum, 5 min): − | growth of the microorganism S.a ([6]; Serum, 10 min): − | growth of the microorganism S.a ([6]; Serum, 15 min): − | growth of the microorganism P.a ([7]; GOT, 5 min): − | growth of the microorganism P.a ([7]; GOT, 10 min): − | growth of the microorganism P.a ([7]; GOT, 15 min): − | growth of the microorganism P.a ([7]; GPT, 5 min): − | growth of the microorganism P.a ([7]; GPT, 10 min): − | growth of the microorganism P.a ([7]; GPT, 15 min): − | growth of the microorganism P.a ([7]; Serum, 5 min): − | growth of the microorganism P.a ([7]; Serum, 10 min): − | growth of the microorganism P.a ([7]; Serum, 15 min): −

benzalkonium chloride [BC, reference compound]
Minimum Inhibitory Concentration S.a ([1]; GOT 100 μg/mL): <1 µg/mL | Minimum Inhibitory Concentration S.a ([1]; GPT 100 μg/mL): 50 µg/mL | Minimum Inhibitory Concentration S.a ([1]; Pure Water): <1 µg/mL | Minimum Inhibitory Concentration S.a ([1]; Serum 100 μg/mL): <1 µg/mL | Minimum Inhibitory Concentration B.s ([2]; GOT 100 μg/mL): 10 µg/mL | Minimum Inhibitory Concentration B.s ([2]; GPT 100 μg/mL): 10 µg/mL | Minimum Inhibitory Concentration B.s ([2]; Pure Water): 10 µg/mL | Minimum Inhibitory Concentration B.s ([2]; Serum 100 μg/mL): 10 µg/mL | Minimum Inhibitory Concentration E.c ([3]; GOT 100 μg/mL): 200 µg/mL | Minimum Inhibitory Concentration E.c ([3]; GPT 100 μg/mL): 200 µg/mL | Minimum Inhibitory Concentration E.c ([3]; Pure Water): 100 µg/mL | Minimum Inhibitory Concentration E.c ([3]; Serum 100 μg/mL): 200 µg/mL | Minimum Inhibitory Concentration P.a ([4]; GOT 100 μg/mL): >200 µg/mL | Minimum Inhibitory Concentration P.a ([4]; GPT 100 μg/mL): >200 µg/mL | Minimum Inhibitory Concentration P.a ([4]; Pure Water): >200 µg/mL | Minimum Inhibitory Concentration P.a ([4]; Serum 100 μg/mL): >200 µg/mL | growth of the microorganism B.s ([5]; GOT, 5 min): + | growth of the microorganism B.s ([5]; GOT, 10 min): + | growth of the microorganism B.s ([5]; GOT, 15 min): + | growth of the microorganism B.s ([5]; GPT, 5 min): + | growth of the microorganism B.s ([5]; GPT, 10 min): + | growth of the microorganism B.s ([5]; GPT, 15 min): + | growth of the microorganism B.s ([5]; Serum, 5 min): + | growth of the microorganism B.s ([5]; Serum, 10 min): + | growth of the microorganism B.s ([5]; Serum, 15 min): + | growth of the microorganism S.a ([6]; GOT, 5 min): − | growth of the microorganism S.a ([6]; GOT, 10 min): − | growth of the microorganism S.a ([6]; GOT, 15 min): − | growth of the microorganism S.a ([6]; GPT, 5 min): − | growth of the microorganism S.a ([6]; GPT, 10 min): − | growth of the microorganism S.a ([6]; GPT, 15 min): − | growth of the microorganism S.a ([6]; Serum, 5 min): + | growth of the microorganism S.a ([6]; Serum, 10 min): + | growth of the microorganism S.a ([6]; Serum, 15 min): + | growth of the microorganism P.a ([7]; GOT, 5 min): + | growth of the microorganism P.a ([7]; GOT, 10 min): + | growth of the microorganism P.a ([7]; GOT, 15 min): + | growth of the microorganism P.a ([7]; GPT, 5 min): + | growth of the microorganism P.a ([7]; GPT, 10 min): + | growth of the microorganism P.a ([7]; GPT, 15 min): + | growth of the microorganism P.a ([7]; Serum, 5 min): + | growth of the microorganism P.a ([7]; Serum, 10 min): + | growth of the microorganism P.a ([7]; Serum, 15 min): +
